ChEMBL document CHEMBL5241104, “Reactive metabolites of the anticonvulsant drugs and approaches to minimize the adverse drug reaction” (Eur J Med Chem, 2021)

Columns and labels:
Mus musculus [1] = assay: Anticonvulsant activity in Albino Swiss CD-1 mouse assessed as protection against maximal electroshock induced seizure at 100 mg/kg,ip administration; assay type: functional
Mus musculus [2] = assay: Anticonvulsant activity in Albino Swiss CD-1 mouse assessed as protection against Sc-Met induced seizure at 100 mg/kg,ip administration; assay type: functional
[3] = Toxicity in Sprague-Dawley rat assessed as median toxic dose at po administrated upto 4 hrs by rotorod test; assay type: organism-based; conditions: in vivo
[4] = Protective index, ratio of TD50 for toxicity in Sprague-Dawley rat assessed as median toxicity dose at po administration upto 4 hrs by rotorod test to ED50 for anticonvulsant activity in Sprague-Dawley rat assessed as protection against maximal electroshock induced seizure at po administration upto 4 hrs; assay type: organism-based; conditions: in vivo, read-out: Ratio TD50/ED50
Mus musculus [5] = assay: Anticonvulsant activity in CD-1 mouse assessed as protection against maximal electroshock induced seizure at ip administrated for 30 mins; assay type: functional; conditions: CD-1, 0.5 h
Mus musculus [6] = assay: Anticonvulsant activity in CD-1 mouse assessed as protection against Sc-Met induced seizure at ip administrated for 30 mins; assay type: functional; conditions: CD-1, 0.5 h
[7] = Toxicity in CD-1 mouse assessed as median toxicity dose at ip administration for 30 mins by rotorod test; assay type: organism-based; conditions: in vivo
Mus musculus [8] = assay: Anticonvulsant activity in mouse assessed as inhibition of maximal electroshock induced seizure at 200 mg/kg,po administration for 120 mins; assay type: functional; conditions: 2 h
Mus musculus [9] = assay: Anticonvulsant activity in mouse assessed as protection against maximal electroshock induced seizure at ip administration for 120 mins; assay type: functional; conditions: 2 h
Mus musculus [10] = assay: Anticonvulsant activity in mouse assessed as protection against 6-Hz induced seizure at ip administration upto 2 hrs; assay type: functional
Rattus norvegicus [11] = assay: Anticonvulsant activity in rat brain assessed as increase in GABA level at 100 mg/kg,ip administrated for 2 hrs by spectrophotometric method; assay type: functional
[12] = Hepatotoxicity in rat assessed as total albumin level at 100 mg/kg,ip administrated for 2 hrs by spectrophotometric method; assay type: toxicity, organism-based; conditions: in vivo
[13] = Hepatotoxicity in rat assessed as total protein level at 100 mg/kg,ip administrated for 2 hrs by spectrophotometric method; assay type: toxicity, organism-based; conditions: in vivo
Rattus norvegicus [14] = assay: Anticonvulsant activity in Sprague-Dawley rat assessed as protection against maximal electroshock induced seizure at po administrated for 30 mins; assay type: functional; conditions: 0.5 h
Rattus norvegicus [15] = assay: Anticonvulsant activity in Sprague-Dawley rat assessed as protection against Sc-Met induced seizure at po administrated for 30 mins; assay type: functional; conditions: 0.5 h

Work on `Cl.Cl.O=C1CC(c2ccccc2)(c2ccccc2)CN1CN1CCN(c2ccccc2)CC1` yielded an Activity (Mus musculus [1]) of 25% and an Activity (Mus musculus [2]) of 25%.
`CCOC(=O)C1C(=O)C=C(Nc2cc(C)on2)CC1C` (stereo not given) showed a TD50 at 4 h [3] greater than 500 mg/kg and a selectivity ratio at 4 h [4] greater than 49.6.
Work on `Cc1cccc(C)c1NC(=O)c1cc(CO)on1` yielded an ED50 (Mus musculus [5]) of 8.7 mg/kg, an ED50 (Mus musculus [6]) greater than 30 mg/kg and a TD50 at 0.5 h [7] of 28.5 mg/kg.
Work on `CC1(C)OCC(CO[S+](N)[O-])O1` (stereo not given) yielded an inhibition in vivo at 200 mg/kg (Mus musculus [8]) of no less than 80% and an ED50 (Mus musculus [9]) of 105 mg/kg.
Compound `CCCC(COC(=O)Nc1ccc(S(N)(=O)=O)cc1)C(C)CC` (stereo not given) has an ED50 (Mus musculus [10]) of 74 mg/kg.
In the case of `Nc1ccc(Cl)cc1-c1n[nH]c(=O)n(-c2ccc(O)cc2)c1=O`, the Activity (Rattus norvegicus [11]) is reported as 87.4 mg, the Activity [12] is reported as 1.61 g/dL and the Activity [13] is reported as 4.78 g/dL.
In the case of `Cc1cc(C(=O)Nc2c(C)cccc2C)no1`, the ED50 (Rattus norvegicus [14]) is reported as 5.5 mg/kg and the ED50 (Rattus norvegicus [15]) is reported as greater than 250 mg/kg.
